Data published in patent US20150175599A1, “FAAH Inhibitors” (Ironwood Pharmaceuticals, Inc., priority 2010, published 2015).

Key:
[1] = Pharmacokinetic study, plasma level 2 hours after oral dosing in rats; assay type: in vivo
Experimental: Pharmacokinetic studies were conducted to determine absorption and distribution profiles of the disclosed compounds which were orally administered to rats.
Compounds were formulated in a 1% DMA/99% Vitamin E TPGS vehicle. Prepared compounds were dosed via oral gavage (PO). Following the appropriate pretreatment time of 2 hours, rats were anesthetized with isoflurane gas. Blood was collected into tubes containing EDTA via retro-orbital eye bleed. Whole blood was spun in a micro-centrifuge at approximately 13,000 rpm for 5 minutes at room temperature. Separated plasma was subsequently aliquoted into eppendorf tubes. Samples were stored at −80° C. until prepped for analysis.
Plasma samples were thawed and the required amount of plasma for standards, blanks and dilutions were made. The dilutions were prepared before plating. Preparation of crash solution included cold acetonitrile+0.1% formic acid and 25 ng/mL of a FAAH inhibitor used as internal standard. solvent standards of the FAAH inhibitor being studied were preparation at 10, 30, 100, 300, 1000, 3000, 10000, 30000, 100000, and 300000 ng/mL in DMSO. Then a plasma standard curve was generated from the solvent standards (final concentrations of standards in plasma were: 0.1, 0.3, 1, 3, 10, 30, 100, 300, 1000, 3000 ng/mL). 50 μL of each plasma sample/dilution, standard, or blank was transferred into 96-well plates. To each well, 200 μL of cold crash solution was added. The plate was covered and gently vortexed. The plate was centrifuged at 3500 rpm, 4° C. for 10 min. 200 μL of each supernatant was transferred into new plates. The plates were dried under nitrogen in a TurboVap at 55° C. The sample in each well was re-suspended with 100 μL of 30% acetonitrile, covered and vortexed gently. The well solutions were analyzed by the LC/MS/MS conditions and specifications below.
HPLC column was a Clipeus C8, 2.1×30 mm, 5 μm, with Basic 8 guard column using 20 μL injections. Mobile phase used was mobile phase A: 0.1% Formic Acid in water and mobile phase B: 0.1% Formic Acid in 85:10:5 ACN:IPA:H2O. The flow rate for the run was 0.5 mL/min and the gradient for the 4 minute total run time was: 0.0 minutes

[2] = target: T1, hERG channel (Homo sapiens, UniProt Q12809); assay: hERG channel inhibition, automated patch clamp (IonWorks HT, hERG-CHO); assay type: cell-based; conditions: CHO cells expressing hERG, 600 s incubation; for inhibition at 600 s, 1 µM: 1 μM compound, read-out: hERG Channel Inhibition % (at 1 μM), vehicle-subtracted values; for inhibition at 600 s, 10 µM: 10 μM compound, read-out: hERG Channel Inhibition % (at 10 μM), vehicle-subtracted values
T1 construct: expressed in transfected cells; host or cells: CHO (hERG-CHO), under Geneticin selection
Experimental: Human ether-a-gogo-related (hERG) ion channel encodes the inward rectifying voltage gated potassium channel in the heart and has a major role during the repolarization of the cardiac action potential. It is well established that blockade of this ion channel can lead to potentially lethal arrhythmias. hERG pre-clinical safety data is often used by regulatory agencies in elucidate the toxicity profile of certain compositions. The disclosed compounds of Table 1 were tested for their ability to inhibit hERG ion channels.
Media components include F12 Nutrient Mixture (Ham) with GlutaMAX™ (Invitrogen, Cat#31765), Fetal Bovine Serum, Certified (Invitrogen, Cat#16000-044—not heat activated), and Geneticin® Selective Antibiotic (Invitrogen, Cat#10131-027).
One vial of frozen cells, at 1.62×10^6 cells are thawed into a T150 flask (BD Falcon 355001) with 40 mL of pre-warmed complete media. Cells are cultured at 37° C., 5% CO2 for four hours prior to gently changing media. 99% of cells appear attached at this time point.
The flask is media changed at 24 hours post-thaw, the cells are imaged, media changed, and returned to the incubator. At this point, the cells appear healthy and about 25% confluent in the flask. Cells are typically passed 24-48 hours after thaw according to the following intervals and densities below. Cells are incubated at 30° C. for 48 hours prior to assay.
Using an automated patch clamp apparatus (IonWorks^HT), a three pulse protocol was applied by stepping from a holding potential of −80 mV to […] for 2 s, to activate hERG channels. The membrane voltage was then stepped back to −50 mV for 2 s to evoke a tail current prior to returning to the holding potential for 1 s. This sequence was repeated a further two times. This voltage protocol was applied prior to drug (Pre compound) and after 600 s in the presence of drug (Post compound).
The amplitude of the hERG tail current was calculated by measuring the difference between the maximum current on stepping to −50 mV of the third pulse (i.e. peak of the outward hERG tail current) and the current measured immediately prior to activation of any hERG current. This parameter was assessed before (pre tail current amplitude) and after 600 s incubation (post tail current amplitude) in drug. In order to assess the amount of block produced by test compounds, the data was first filtered using the IonWorks™ software to exclude any cells where the seal resistance was less than 50 MOhm. The remaining data was then exported to an excel compatible data file and only currents with tail currents greater than 250 pA were analyzed. The post/pre tail current amplitude ratio for the third pulse was calculated for each drug and control, and presented as percent inhibition.

[3] = target: T2, FAAH (Homo sapiens, UniProt O00519); assay: FAAH inhibition, human brain membrane homogenate assay; assay type: biochemical; conditions: human brain homogenate; average activity; read-out: Human brain Extract FAAH IC50
T2 construct: Reactions were initiated by adding 12.5 μg of brain microsome; tissue ABS, Inc; host or cells: human brain cerebral cortex, membrane/microsome fraction pooled from 3 donors
T2 sequence (O00519 1-579): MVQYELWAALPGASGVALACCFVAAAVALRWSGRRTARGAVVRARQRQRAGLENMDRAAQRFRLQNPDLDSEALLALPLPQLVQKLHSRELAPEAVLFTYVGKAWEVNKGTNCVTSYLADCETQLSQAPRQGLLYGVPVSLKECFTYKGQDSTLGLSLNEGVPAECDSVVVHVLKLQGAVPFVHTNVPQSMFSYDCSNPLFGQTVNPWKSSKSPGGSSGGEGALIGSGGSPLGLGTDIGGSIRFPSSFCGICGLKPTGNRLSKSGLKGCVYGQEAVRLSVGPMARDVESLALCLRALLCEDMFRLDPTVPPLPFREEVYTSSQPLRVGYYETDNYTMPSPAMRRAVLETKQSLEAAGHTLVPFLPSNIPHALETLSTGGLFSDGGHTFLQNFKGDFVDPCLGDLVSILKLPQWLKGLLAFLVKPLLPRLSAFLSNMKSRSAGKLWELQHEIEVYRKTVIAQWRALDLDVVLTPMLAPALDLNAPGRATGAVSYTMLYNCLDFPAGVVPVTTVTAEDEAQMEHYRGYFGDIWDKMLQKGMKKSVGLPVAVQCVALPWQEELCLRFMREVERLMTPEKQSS

T1 sequence (Q12809 whole entry): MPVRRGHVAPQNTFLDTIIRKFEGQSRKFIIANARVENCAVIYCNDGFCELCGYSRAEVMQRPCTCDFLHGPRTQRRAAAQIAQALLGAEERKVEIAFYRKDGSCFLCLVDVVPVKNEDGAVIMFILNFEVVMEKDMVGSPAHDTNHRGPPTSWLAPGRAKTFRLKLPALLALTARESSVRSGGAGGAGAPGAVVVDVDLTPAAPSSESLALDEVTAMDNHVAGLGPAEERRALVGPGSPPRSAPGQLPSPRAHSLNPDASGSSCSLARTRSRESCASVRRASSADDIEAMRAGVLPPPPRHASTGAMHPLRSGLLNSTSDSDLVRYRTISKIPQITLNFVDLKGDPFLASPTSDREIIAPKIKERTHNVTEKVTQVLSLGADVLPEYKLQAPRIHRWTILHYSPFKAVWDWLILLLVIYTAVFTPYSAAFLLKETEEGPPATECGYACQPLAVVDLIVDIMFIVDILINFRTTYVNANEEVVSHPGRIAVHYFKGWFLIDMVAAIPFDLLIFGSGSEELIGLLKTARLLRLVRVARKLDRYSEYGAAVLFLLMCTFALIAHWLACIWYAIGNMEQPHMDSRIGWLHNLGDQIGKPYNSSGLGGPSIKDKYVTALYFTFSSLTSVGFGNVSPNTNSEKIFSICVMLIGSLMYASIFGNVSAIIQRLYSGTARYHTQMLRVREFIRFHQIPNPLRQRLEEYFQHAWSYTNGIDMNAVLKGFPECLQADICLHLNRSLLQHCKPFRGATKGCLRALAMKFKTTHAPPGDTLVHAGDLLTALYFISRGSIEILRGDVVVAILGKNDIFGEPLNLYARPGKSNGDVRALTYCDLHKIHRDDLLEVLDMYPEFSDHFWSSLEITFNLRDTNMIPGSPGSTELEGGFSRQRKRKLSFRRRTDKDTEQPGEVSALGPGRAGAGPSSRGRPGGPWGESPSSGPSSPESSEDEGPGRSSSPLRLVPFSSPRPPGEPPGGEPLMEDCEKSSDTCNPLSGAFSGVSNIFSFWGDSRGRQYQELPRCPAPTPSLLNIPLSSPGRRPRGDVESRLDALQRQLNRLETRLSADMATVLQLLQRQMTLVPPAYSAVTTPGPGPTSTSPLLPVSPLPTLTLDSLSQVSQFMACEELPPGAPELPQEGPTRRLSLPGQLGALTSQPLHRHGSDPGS

| SMILES | 2 hr plasma level-ng/mL (rat, 10 mg/kg PO, 2 hr) [1] | inhibition at 600 s, 1 µM [2] | inhibition at 600 s, 10 µM [2] | IC50 [3] |
| --- | --- | --- | --- | --- |
| COc1cc(NC(=O)C(=O)c2c(C)n(Cc3ccc(F)cc3F)c3cc(F)c(OC)cc23)ccn1 [Compound 14, 2-(1-(2,4-difluorobenzyl)-6-fluoro-5-methoxy-2-methyl-1H-indol-3-yl)-N-(2-methoxypyridin-4-yl)-2-oxoacetamide] | D (D = greater than 1000 nM) | < 25% | < 25% | < 100 nM |
| COc1cc(NC(=O)C(=O)c2c(C)n(Cc3ccc(Cl)cc3)c3ccc(C#N)cc23)ccn1 [Compound 15, 2-(1-(4-chlorobenzyl)-5-cyano-2-methyl-1H-indol-3-yl)-N-(2-methoxypyridin-4-yl)-2-oxoacetamide] | D (D = greater than 1000 nM) | < 25% | 50 to 75% | < 100 nM |
| COc1cc(NC(=O)C(=O)c2c(C)n(Cc3ccc(Cl)cc3)c3ccc(N(C)C)cc23)ccn1 [Compound 17, 2-(1-(4-chlorobenzyl)-5-(dimethylamino)-2-methyl-1H-indol-3-yl)-N-(2-methoxypyridin-4-yl)-2-oxoacetamide] | C (C = between 100 nM and 1000 nM) | < 25% | < 25% | < 100 nM |
| COc1cc(NC(=O)C(=O)c2c(C)n(Cc3ccc(Cl)cc3)c3ccc(Br)cc23)ccn1 [Compound 18, 2-(5-bromo-1-(4-chlorobenzyl)-2-methyl-1H-indol-3-yl)-N-(2-methoxypyridin-4-yl)-2-oxoacetamide] | D (D = greater than 1000 nM) | < 25% | < 25% | < 100 nM |
| COc1cc(NC(=O)C(=O)c2c(C)n(Cc3ccc(Cl)cc3)c3ccc([N+](=O)[O-])cc23)ccn1 [Compound 19, 2-(1-(4-chlorobenzyl)-2-methyl-5-nitro-1H-indol-3-yl)-N-(2-methoxypyridin-4-yl)-2-oxoacetamide] | C (C = between 100 nM and 1000 nM) | < 25% | 25 to 50% | < 100 nM |
| COc1cc(NC(=O)C(=O)c2c(C)n(Cc3ccc(Cl)cc3)c3ccc(N)cc23)ccn1 [Compound 20, 2-(5-amino-1-(4-chlorobenzyl)-2-methyl-1H-indol-3-yl)-N-(2-methoxypyridin-4-yl)-2-oxoacetamide] | C (C = between 100 nM and 1000 nM) | < 25% | < 25% | < 100 nM |
| COc1cc(NC(=O)C(=O)c2c(C)n(Cc3ccc(Cl)cc3)c3ccc(C(F)(F)F)cc23)ccn1 [Compound 21, 2-(1-(4-chlorobenzyl)-2-methyl-5-(trifluoromethyl)-1H-indol-3-yl)-N-(2-methoxypyridin-4-yl)-2-oxoacetamide] | C (C = between 100 nM and 1000 nM) | < 25% | 25 to 50% | < 100 nM |
| COc1cc(NC(=O)C(=O)c2c(C)n(Cc3ccc(Cl)cc3)c3ccc(NC(C)=O)cc23)ccn1 [Compound 22, 2-(5-acetamido-1-(4-chlorobenzyl)-2-methyl-1H-indol-3-yl)-N-(2-methoxypyridin-4-yl)-2-oxoacetamide] | B (B = between 10 nM and 100 nM) | < 25% | < 25% | < 100 nM |
| COc1cc(NC(=O)C(=O)c2c(C)n(Cc3ccc(Cl)cc3)c3ccc(OC(F)(F)F)cc23)ccn1 [Compound 23, 2-(1-(4-chlorobenzyl)-2-methyl-5-(trifluoromethoxy)-1H-indol-3-yl)-N-(2-methoxypyridin-4-yl)-2-oxoacetamide] | C (C = between 100 nM and 1000 nM) | < 25% | 50 to 75% | < 100 nM |
| COc1cc(NC(=O)C(=O)c2c(C)n(Cc3ncc(Cl)cc3Cl)c3ccc(C)cc23)ccn1 [Compound 30, 2-(1-((3,5-dichloropyridin-2-yl)methyl)-2,5-dimethyl-1H-indol-3-yl)-N-(2-methoxypyridin-4-yl)-2-oxoacetamide] | C (C = between 100 nM and 1000 nM) | < 25% | 50 to 75% | < 100 nM |
| COc1cc(NC(=O)C(=O)c2c(C)n(Cc3ncc(Cl)cc3Cl)c3ccccc23)ccn1 [Compound 31, 2-(1-((3,5-dichloropyridin-2-yl)methyl)-2-methyl-1H-indol-3-yl)-N-(2-methoxypyridin-4-yl)-2-oxoacetamide] | D (D = greater than 1000 nM) | < 25% | < 25% | < 100 nM |
| COc1ccc(Cn2c(C)c(C(=O)C(=O)Nc3ccnc(OC)c3)c3cc(OC)c(F)cc32)nc1 [Compound 32, 2-(6-fluoro-5-methoxy-1-((5-methoxypyridin-2-yl)methyl)-2-methyl-1H-indol-3-yl)-N-(2-methoxypyridin-4-yl)-2-oxoacetamide] | C (C = between 100 nM and 1000 nM) | < 25% | < 25% | < 100 nM |
| COc1cc(NC(=O)C(=O)c2c(C)n(Cc3ncc(Cl)cc3F)c3ccc(C)cc23)ccn1 [Compound 33, 2-(1-((5-chloro-3-fluoropyridin-2-yl)methyl)-2,5-dimethyl-1H-indol-3-yl)-N-(2-methoxypyridin-4-yl)-2-oxoacetamide] | C (C = between 100 nM and 1000 nM) | < 25% | < 25% | < 100 nM |
